Data as given in US20130217664A1, “NOVEL COMPOUNDS USEFUL FOR THE TREATMENT OF DEGENERATIVE AND INFLAMMATORY DISEASES” (priority 2012, published 2013).

Assays:
Format in all cases: biochemical
human JAK2 = biological target: T1, human JAK2 (Homo sapiens, UniProt O60674); assay: JAK2 inhibition assay (polyGT substrate / Ulight-JAK1 peptide); details: recombinant human JAK2 catalytic domain; polyGT or Ulight-JAK1 peptide assay
T1 construct: catalytic domain (amino acids 808-1132; catalog number PV4210); GST; purchased Invitrogen PV4210
T1 sequence (O60674 808-1132): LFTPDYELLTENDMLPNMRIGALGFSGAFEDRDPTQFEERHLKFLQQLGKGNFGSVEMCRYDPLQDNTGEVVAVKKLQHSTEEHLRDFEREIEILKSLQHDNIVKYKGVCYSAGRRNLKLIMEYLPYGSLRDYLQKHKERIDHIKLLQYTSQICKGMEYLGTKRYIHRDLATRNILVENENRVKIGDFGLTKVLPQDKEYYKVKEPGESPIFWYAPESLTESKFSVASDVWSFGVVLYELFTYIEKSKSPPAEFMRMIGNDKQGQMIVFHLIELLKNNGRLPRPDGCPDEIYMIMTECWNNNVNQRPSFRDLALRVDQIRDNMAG
Procedure: 1.2 JAK2 Inhibition Assay
1.2.1 JAK2 Assay polyGT Substrate
0.025 mU of JAK2 is incubated with 2.5 μg polyGT substrate (Sigma catalog number P0275) in kinase reaction buffer (5 mM MOPS pH 7.5, 9 mM MgAc, 0.3 mM EDTA, 0.06% Brij and 0.6 mM DTT, 1 μM non-radioactive ATP, 0.25 μCi ^33P-gamma-ATP (GE Healthcare, catalog number AH9968) final concentrations) with or without 5 μL containing test compound or vehicle (DMSO, 1% final concentration), in a total volume of 25 μL, in a polypropylene 96-well plate (Greiner, V-bottom). After 90 min at 30° C., reactions are stopped by adding of 25 μL/well of 150 mM phosphoric acid. […] Plates are washed 6 times with 300 μL per well of a 75 mM phosphoric acid solution and the bottom of the plates is sealed. 40 μL/well of Microscint-20 is added, the top of the plates is sealed and readout is performed using the Topcount (Perkin Elmer). Kinase activity is calculated by subtracting counts per min (cpm) obtained in the presence of a positive control inhibitor (10 μM staurosporine) from cpm obtained in the presence of vehicle. The ability of a test compound to inhibit this activity is determined as:
(§1) Percentage inhibition=((cpm determined for sample with test compound present−cpm determined for sample with positive control inhibitor)divided by(cpm determined in the presence of vehicle−cpm determined for sample with positive control inhibitor))*100.
Dose dilution series are prepared for the compounds enabling the testing of dose-response effects in the JAK2 assay and the calculation of the IC50 for each compound.
1.2.2 JAK2 Ulight-JAK1 Peptide Assay
(§2) After 60 min at room temperature, reactions were stopped by adding 20 μL/well of detection mixture (1× detection buffer (Perkin Elmer, catalog number CR97-100C), 0.5 nM Europium-anti-phosphotyrosine (PT66) (Perkin Elmer, catalog number AD0068), 10 mM EDTA). […] Kinase activity was calculated by subtracting relative fluorescence units (RFU) obtained in the presence of a positive control inhibitor (10 μM staurosporine) from RFU obtained in the presence of vehicle. The ability of a test compound to inhibit this activity was determined as:
(§3) Percentage inhibition=((RFU determined for sample with test compound present−RFU determined for sample with positive control inhibitor)divided by(RFU determined in the presence of vehicle−RFU determined for sample with positive control inhibitor))*100.
(§4) Dose dilution series are prepared for compound enabling the testing of dose-response effects in the JAK2 assay and the calculation of the IC50 for the compound. Each compound is routinely tested at concentration of 20 μM followed by a 1/5 serial dilution, 10 points in a final concentration of 1% DMSO. […] The data are expressed as the average IC50 from the assays±standard error of the mean.

human JAK1 = biological target: T2, human JAK1 (Homo sapiens, UniProt P23458); assay: JAK1 inhibition assay (polyGT substrate / Ulight-JAK1 peptide); details: recombinant human JAK1 catalytic domain; polyGT or Ulight-JAK1 peptide assay
T2 construct: catalytic domain, amino acids 866-1154; catalog number PV4774; purchased Invitrogen PV4774
T2 sequence (P23458 866-1154): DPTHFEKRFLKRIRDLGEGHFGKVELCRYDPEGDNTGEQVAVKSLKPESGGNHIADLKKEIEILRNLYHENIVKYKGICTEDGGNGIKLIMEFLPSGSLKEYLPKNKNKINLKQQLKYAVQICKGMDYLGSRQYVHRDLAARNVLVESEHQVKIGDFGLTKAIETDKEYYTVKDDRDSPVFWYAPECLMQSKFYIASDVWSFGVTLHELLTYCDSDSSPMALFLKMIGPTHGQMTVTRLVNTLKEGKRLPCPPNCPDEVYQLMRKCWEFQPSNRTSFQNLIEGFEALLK
Procedure: 1.1 JAK1 Inhibition Assay
1.1.1 JAK1 Assay polyGT Substrate
After 45 min at 30° C., reactions are stopped by adding of 25 μL/well of 150 mM phosphoric acid. […] Plates are washed 6 times with 300 μL per well of a 75 mM phosphoric acid solution and the bottom of the plates is sealed. 40 μL/well of Microscint-20 is added, the top of the plates is sealed and readout is performed using the Topcount (Perkin Elmer). Kinase activity is calculated by subtracting counts per min (cpm) obtained in the presence of a positive control inhibitor (10 μM staurosporine) from cpm obtained in the presence of vehicle. The ability of a test compound to inhibit this activity is determined as:
as §1
Dose dilution series are prepared for the compounds enabling the testing of dose-response effects in the JAK1 assay and the calculation of the IC50 for each compound.
1.1.2 JAK1 Ulight-JAK1 Peptide Assay
as §2, §3
as §4, with “series were” for “series are”, “for the compounds” for “for compound”, “the JAK1” for “the JAK2”

human TYK2 = biological target: T3, human TYK2 (Homo sapiens, UniProt P29597); assay: TYK2 inhibition assay; details: recombinant human TYK2 catalytic domain, polyGT substrate
T3 construct: catalytic domain (amino acids 871-1187; catalog number 08-147); purchased Carna Biosciences 08-147
T3 sequence (P29597 871-1187): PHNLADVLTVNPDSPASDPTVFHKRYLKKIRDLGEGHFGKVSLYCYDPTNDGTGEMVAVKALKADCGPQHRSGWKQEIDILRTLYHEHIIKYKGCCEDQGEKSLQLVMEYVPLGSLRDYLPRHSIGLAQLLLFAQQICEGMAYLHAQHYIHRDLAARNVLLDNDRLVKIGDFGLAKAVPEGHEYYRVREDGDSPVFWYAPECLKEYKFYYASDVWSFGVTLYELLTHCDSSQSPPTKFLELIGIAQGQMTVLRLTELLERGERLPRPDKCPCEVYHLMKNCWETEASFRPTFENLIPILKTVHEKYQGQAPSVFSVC
Procedure: 1.4 TYK2 Inhibition Assay
After 90 min at 30° C., reactions were stopped by adding 25 μL/well of 150 mM phosphoric acid. […] Plates were washed 6 times with 300 μL per well of a 75 mM phosphoric acid solution and the bottom of the plates was sealed. 40 μL/well of Microscint-20 was added, the top of the plates was sealed and readout was performed using the Topcount (Perkin Elmer). Kinase activity was calculated by subtracting counts per min (cpm) obtained in the presence of a positive control inhibitor (10 μM staurosporine) from cpm obtained in the presence of vehicle. The ability of a test compound to inhibit this activity was determined as:
as §1
Dose dilution series were prepared for the compounds enabling the testing of dose-response effects in the TYK2 assay and the calculation of the IC50 for each compound.

human JAK3 = biological target: T4, human JAK3 (Homo sapiens, UniProt P52333); assay: JAK3 inhibition assay; details: recombinant human JAK3 catalytic domain; polyGT substrate
T4 construct: catalytic domain (amino acids 781-1124; catalog number PV3855); purchased Invitrogen PV3855
T4 sequence (P52333 781-1124): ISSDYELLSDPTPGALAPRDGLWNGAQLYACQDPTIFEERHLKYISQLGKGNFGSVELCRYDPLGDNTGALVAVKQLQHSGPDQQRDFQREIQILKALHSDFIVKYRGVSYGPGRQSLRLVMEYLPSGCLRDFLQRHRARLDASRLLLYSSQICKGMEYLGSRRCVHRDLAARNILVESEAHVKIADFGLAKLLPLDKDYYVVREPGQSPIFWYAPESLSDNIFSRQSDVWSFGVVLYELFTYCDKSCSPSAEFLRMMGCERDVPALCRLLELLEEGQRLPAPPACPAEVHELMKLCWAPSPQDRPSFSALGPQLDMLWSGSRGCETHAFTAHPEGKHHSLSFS
Procedure: 1.3 JAK3 Inhibition Assay
0.5 ng JAK3 protein was incubated with 2.5 μg polyGT substrate (Sigma catalog number P0275) in kinase reaction buffer (25 mM Tris pH 7.5, 0.5 mM EGTA, 10 mM MgCl2, 2.5 mM DTT, 0.5 mM Na3VO4, 5 mM b-glycerolphosphate, 0.01% Triton X-100, 1 μM non-radioactive ATP, 0.25 μCi 33P-gamma-ATP (GE Healthcare, catalog number AH9968) final concentrations) with or without 5 μL containing test compound or vehicle (DMSO, 1% final concentration), in a total volume of 25 μL, in a polypropylene 96-well plate (Greiner, V-bottom). After 45 min at 30° C., reactions were stopped by adding 25 μL/well of 150 mM phosphoric acid. […] Plates were washed 6 times with 300 μL per well of a 75 mM phosphoric acid solution and the bottom of the plates was sealed. 40 μL/well of Microscint-20 was added, the top of the plates was sealed and readout was performed using the Topcount (Perkin Elmer). Kinase activity was calculated by subtracting counts per min (cpm) obtained in the presence of a positive control inhibitor (10 μM staurosporine) from cpm obtained in the presence of vehicle. The ability of a test compound to inhibit this activity was determined as:
as §1
Dose dilution series were prepared for the compounds enabling the testing of dose-response effects in the JAK3 assay and the calculation of the IC50 for each compound. Each compound was routinely tested at concentration of 20 μM followed by a 1/5 serial dilution, 10 points in a final concentration of 1% DMSO.

| SMILES | IC50 (human JAK2) [nM] | IC50 (human JAK1) [nM] | IC50 (human TYK2) [nM] | IC50 (human JAK3) [nM] |
| --- | --- | --- | --- | --- |
| CCc1ccc(C(=O)NCCOC)cc1N(C)c1cc2c(cn1)ncn2C [Compound 116, 4-Ethyl-N-(2-methoxyethyl)-3-(methyl(1-methyl-1H-imidazo[4,5-c]pyridin-6-yl)amino)benzamide] | > 1000 | 101 to 500 |  |  |
| Cc1cc(Oc2ccc(C#N)nc2)ccc1N(C)c1cc2c(cn1)ncn2C [Compound 88, 5-(3-methyl-4-(methyl(1-methyl-1H-imidazo[4,5-c]pyridin-6-yl)amino)phenoxy)picolino-nitrile] | > 1000 | 101 to 500 |  |  |
| Cc1c(OCc2cccnc2)cccc1N(C)c1cc2c(cn1)ncn2C [Compound 69, N,1-dimethyl-N-(2-methyl-3-(pyridin-3-ylmethoxy)phenyl)-1H-imidazo[4,5-c]pyridin-6-amine] | > 1000 | 101 to 500 |  |  |
| COc1ccc(Cc2ccc(N(C)c3cc4c(cn3)ncn4C)c(C)c2)cc1 [Compound 74, N-(4-(4-methoxybenzyl)-2-methylphenyl)-N,1-dimethyl-1H-imidazo[4,5-c]pyridin-6-amine] | > 1000 | 501 to 1000 |  |  |
| Cc1c(Oc2ccc(C#N)nc2)cccc1N(C)c1cc2c(cn1)ncn2C [Compound 90, 5-(2-methyl-3-(methyl(1-methyl-1H-imidazo[4,5-c]pyridin-6-yl)amino)phenoxy)picolino-nitrile] | > 1000 | 101 to 500 |  |  |
| Cc1cc(C(=O)O)ccc1N(C)c1cc2c(cn1)ncn2C [Compound 40, 3-methyl-4-(methyl(1-methyl-1H-imidazo[4,5-c]pyridin-6-yl)amino)benzoic acid] | > 1000 | > 1000 |  |  |
| Cc1c(OCC(C)C)cccc1N(C)c1cc2c(cn1)ncn2C [Compound 70, N-(3-isobutoxy-2-methylphenyl)-N,1-dimethyl-1H-imidazo[4,5-c]pyridin-6-amine] | 501 to 1000 | 101 to 500 |  |  |
| CCc1ccc(CO)cc1N(C)c1cc2c(cn1)ncn2C [Compound 109, (4-Ethyl-3-(methyl(1-methyl-1H-imidazo[4,5-c]pyridin-6-yl)amino)phenyl)MeOH] | > 1000 | 101 to 500 |  |  |
| CCc1cc(CNC2CCN(C(=O)OC(C)(C)C)C2)ccc1N(C)c1cc2c(cn1)ncn2C (centres unmarked) [Compound 291, 3-{3-Ethyl-4-[methyl-(1-methyl-1H-imidazo[4,5-c]pyridin-6-yl)-amino]-benzylamino}-pyrrolidine-1-carboxylic acid tert-butyl ester] |  | 0.01 to 100 | 101 to 500 | > 1000 |
| CCc1cc(-c2ccc(OC)nc2)ccc1N(C)c1cc2c(cn1)ncn2C [Compound 130, N-(2-ethyl-4-(6-methoxypyridin-3-yl)phenyl)-N,1-dimethyl-1H-imidazo[4,5-c]pyridin-6-amine] |  | 0.01 to 100 | 0.01 to 100 | 101 to 500 |

Next, values leading:

| IC50 (human JAK2) [nM] | IC50 (human JAK1) [nM] | IC50 (human TYK2) [nM] | IC50 (human JAK3) [nM] | SMILES |
| --- | --- | --- | --- | --- |
| > 1000 | > 1000 |  |  | CN(c1cc2c(cn1)ncn2C)c1ccccc1C#N [Compound 41, 2-(Methyl(1-methyl-1H-imidazo[4,5-c]pyridin-6-yl)amino)benzonitrile] |
| > 1000 | 501 to 1000 |  |  | Cc1cc(OCc2ccc(Cl)cc2)ccc1N(C)c1cc2c(cn1)ncn2C [Compound 54, N-(4-(4-chlorobenzyloxy)-2-methylphenyl)-N,1-dimethyl-1H-imidazo[4,5-c]pyridin-6-amine] |
| > 1000 | 101 to 500 |  |  | CCc1ccc(COC)cc1N(C)c1cc2c(cn1)ncn2C [Compound 122, N-(2-Ethyl-5-(methoxymethyl)phenyl)-N,1-dimethyl-1H-imidazo[4,5-c]pyridin-6-amine] |
| > 1000 | > 1000 |  |  | CCN(c1cccc(C(=O)c2ccccc2)c1)c1cc2c(cn1)ncn2C [Compound 9, (3-(ethyl(1-methyl-1H-imidazo[4,5-c]pyridin-6-yl)amino)phenyl)(phenyl) methanone] |
| > 1000 | > 1000 |  |  | CCc1ncccc1N(C)c1cc2c(cn1)ncn2C [Compound 79, N-(2-ethylpyridin-3-yl)-N,1-dimethyl-1H-imidazo[4,5-c]pyridin-6-amine] |
|  | 0.01 to 100 | 101 to 500 | 101 to 500 | CCc1cc(O[C@H]2CCN(S(C)(=O)=O)C2)ccc1N(C)c1cc2c(cn1)ncn2C [Compound 260, (S)-N-(2-ethyl-4-(1-(methylsulfonyl)pyrrolidin-3-yloxy)phenyl)-N,1-dimethyl-1H-imidazo[4,5-c]pyridin-6-amine] |
|  | 0.01 to 100 | 0.01 to 100 | 0.01 to 100 | CCc1cc(-c2ccsc2)ncc1N(C)c1cc2c(cn1)ncn2C [Compound 288, (4-Ethyl-6-thiophen-3-yl-pyridin-3-yl)-methyl-(1-methyl-1H-imidazo[4,5-c]pyridin-6-yl)-amine] |
|  | 0.01 to 100 | 0.01 to 100 | 101 to 500 | CCc1cc(C(=O)NC#N)ccc1N(C)c1cc2c(cn1)ncn2C [Compound 179, N-Cyano-3-ethyl-4-(methyl(1-methyl-1H-imidazo[4,5-c]pyridin-6-yl)amino)benzamide] |
